In general, MIC refers to the lowest concentration that inhibits growth of the organism. A high value points to weaker potency.

Values after ≈ are worked out from the molar mass of the structure shown. Active and inactive are the calls of the source. The rule behind the calls is not given here.

The test system of one assay is Escherichia coli. The assay can be described thus: Antibacterial activity against Escherichia coli O157:H7 by Kirby Bauer paper diffusion method. The assay is classed as functional, organism-based.
Assay [1] concerns Bacillus subtilis. As to the kind of experiment: Antibacterial activity against Bacillus subtilis ATCC 6633 assessed as inhibition zone at 15 ug/mL by Kirby Bauer paper diffusion method. The assay is classed as functional. The note with it: read-out: DIZ.
Assay [2] concerns Bacillus subtilis. The assay can be described thus: Antibacterial activity against Bacillus subtilis ATCC 6633 by Kirby Bauer paper diffusion method. The format is functional.
Assay [3] concerns Bacillus subtilis. As to the kind of experiment: Antibacterial activity against Bacillus subtilis ATCC 6633 assessed as inhibition zone at 10 ug/mL by Kirby Bauer paper diffusion method. As to conditions: read-out: DIZ. The format is functional.
In assay [4] the test system is Bacillus subtilis. As to the kind of experiment: Antibacterial activity against Bacillus subtilis ATCC 6633 assessed as inhibition zone at 25 ug/mL by Kirby Bauer paper diffusion method. The assay is classed as functional. The note with it: read-out: DIZ.

As to `O=C(NCCO)c1ccccc1`, the result in the assay with Escherichia coli was inactive. Further, in the assay with Bacillus subtilis [1], the zone of inhibition at 15 µg/mL came out at 7 mm. Further, the MIC in the assay with Bacillus subtilis [2] is 15 µg/mL (≈ 90.8 µM).
On to `CC1(C)S[C@@H]2[C@H](NC(=O)Cc3ccccc3)C(=O)N2[C@H]1C(=O)[O-].[K+]` [PENICILLIN G POTASSIUM], for which, in the assay on Bacillus subtilis [1], the zone of inhibition at 15 µg/mL turned out to be 20 mm. In addition, in the assay with Bacillus subtilis [3], the zone of inhibition at 10 µg/mL was 16 mm. The MIC with Bacillus subtilis [2] turned out to be 10 µg/mL.
With `O=C1C[C@]2(C=Cc3c(c4ccccc4oc3=O)O2)CN1`, in the assay with Escherichia coli, the result was inactive. The zone of inhibition at 25 µg/mL with Bacillus subtilis [4] was determined as 5 mm. Moreover, inhibition of growth in the assay with Bacillus subtilis [2] (MIC) required 25 µg/mL (≈ 92.8 µM).
The corresponding values for `O=C(Nc1ccccc1)c1cc(O)c(O)c(O)c1` are “inactive”, 0 mm and 25 µg/mL (≈ 102 µM).
In the case of `Cc1c2oc(=O)ccc2cc2c(O)c(C(C)(C)O)oc12`, the outcome in the assay on Escherichia coli was inactive. Besides, the zone of inhibition at 25 µg/mL in the assay with Bacillus subtilis [4] came to 4 mm. Further, the MIC in the assay on Bacillus subtilis [2] was found to be 25 µg/mL (≈ 91.2 µM).
As for `C#Cc1ccc(-c2c(C=O)c3ccccc3oc2=O)cc1`, the result with Escherichia coli was inactive. The zone of inhibition at 25 µg/mL with Bacillus subtilis [4] came to 5 mm. Besides, in the assay on Bacillus subtilis [2], the MIC came to 25 µg/mL (≈ 91.1 µM).
